Measurements taken from patent US20240247035A1, “STAPLED ANTIMICROBIAL PEPTIDES (STAMPS) AND USES THEREOF” (Lytica Therapeutics, Inc., priority 2021, published 2024).
Values after ≈ are worked out from the molar mass of the structure shown. Bridge positions count the residues as written; N and C are the ends. Square brackets hold non-standard residues; d marks the D form. Peptide text beside a SMILES is read from it. Phe(4-tBu) = CC(C)(C)c1ccc(C[C@H](N)C(=O)O)cc1; S5 = C=CCCC[C@](C)(N)C(=O)O; Orn = NCCC[C@H](N)C(=O)O

Assays:
[1] = 48 hours cytotoxicity assay (CellTiter-Glo), liver toxicity; assay type: cell-based; settings: human
Method: (§1) Cell culture: RPTEC were maintained in MEM media supplemented with growth factors. HEPG2 cell line was maintained in Eagle's Minimum Essential Medium (EMEM) supplemented with fetal bovine serum to a final concentration of 10%.
48 hours cytotoxicity assay: Cells were plated in a 96-well format, and after 4 hour incubation to allow attachment, serial dilutions of StAMPs from a 5 mg/mL water stock, or vehicle, were then added to the cells in a final volume of 100 μl. After incubating at 37° C. for 48 hours, 100 μl of CellTiter-Glo® reagent was added to the cells, and the plates were incubated 10 minutes at room temperature. Luminescence was then measured on a microplate reader.
(§2) Renal toxicity was measured after 90 minutes of incubation, while liver toxicity was measured after 48 hours of incubation with StAMPs. N/A=not tested.

[2] = 90 minute cytotoxicity assay (LDH release), renal toxicity; assay type: cell-based; settings: human
Method: as §1
90 minute cytotoxicity assay: Cells were plated in a 96-well format, and after overnight incubation, media was replaced with fresh media. Serial dilutions of StAMPs from a 5 mg/mL water stock, or vehicle, were added to the cells in a final volume of 100 μl. After incubating at 37° C. for 90 min, 50 μl of cell culture media was transferred to a clear 96-well plate, incubated with 50 μl of lactate dehydrogenase (LDH) assay reagent for 10 min, and absorbance measured at 490 nm on a microplate reader.
as §2

SMILES: CC[C@H](C)[C@H](NC(=O)[C@H](CCCCN)NC(=O)[C@H](CCCCN)NC(=O)CNC(=O)[C@H](CCCCN)NC(=O)[C@]1(C)CCCC=CCCC[C@](C)(NC(=O)CN)C(=O)N[C@@H](CCCCN)C(=O)N[C@@H](CO)C(=O)N[C@@H](CCCCN)C(=O)N1)C(=O)N[C@@H](CCCCN)C(=O)N[C@@H](CC(N)=O)C(=O)N[C@@H](CC(C)C)C(=O)N[C@@]1(C)CCCC=CCCC[C@@](C)(C(=O)N[C@@H](CCCCN)C(=O)N[C@@H](CC(N)=O)C(N)=O)NC(=O)[C@H](Cc2ccccc2)NC(=O)[C@H](CO)NC(=O)[C@H]([C@@H](C)CC)NC1=O [compound 22] (H-G[S5]KSK[S5]KGKKIKNL[S5]ISF[S5]KN-NH2; staple 2-6, 15-19)
- IC50 at 48 hours [1]: 67 µg/mL (≈ 27.7 µM)
- IC50 at 90 min [2]: 16 µg/mL (≈ 6.62 µM)

SMILES: CC[C@H](C)[C@H](NC(=O)[C@H](CCCCN)NC(=O)[C@H](CCCCN)NC(=O)CNC(=O)[C@H](CCCCN)NC(=O)[C@]1(C)CCCC=CCCC[C@](C)(NC(=O)CN)C(=O)N[C@@H](CCCCN)C(=O)N[C@@H](CO)C(=O)N[C@@H](CCCCN)C(=O)N1)C(=O)N[C@@H](CCCCN)C(=O)N[C@@H](CC(N)=O)C(=O)N[C@@H](Cc1ccc(C(C)(C)C)cc1)C(=O)N[C@@]1(C)CCCC=CCCC[C@@](C)(C(=O)N[C@@H](CCCCN)C(=O)N[C@@H](CC(N)=O)C(N)=O)NC(=O)CNC(=O)[C@H](CO)NC(=O)[C@H]([C@@H](C)CC)NC1=O [compound 19] (H-G[S5]KSK[S5]KGKKIKN[Phe(4-tBu)][S5]ISG[S5]KN-NH2; staple 2-6, 15-19)
- IC50 at 48 hours [1]: 23 µg/mL (≈ 9.51 µM)
- IC50 at 90 min [2]: 68 µg/mL (≈ 28.1 µM)

SMILES: CC[C@H](C)[C@H](NC(=O)[C@H](CCCCN)NC(=O)[C@H](CCCCN)NC(=O)CNC(=O)[C@H](CCCCN)NC(=O)[C@]1(C)CCCC=CCCC[C@](C)(NC(=O)CN)C(=O)N[C@@H](Cc2ccccc2)C(=O)N[C@@H](CO)C(=O)N[C@@H](CCCCN)C(=O)N1)C(=O)N[C@@H](CCCCN)C(=O)N[C@@H](CC(N)=O)C(=O)N[C@@H](CC(C)C)C(=O)N[C@@H](CC(C)C)C(=O)N[C@@]1(C)CCCC=CCCC[C@@](C)(C(=O)N[C@@H](CCCCN)C(N)=O)NC(=O)[C@H](CC(C)C)NC(=O)CNC(=O)[C@H](CO)NC1=O [compound 38] (H-G[S5]FSK[S5]KGKKIKNLL[S5]SGL[S5]K-NH2; staple 2-6, 16-20)
- IC50 at 48 hours [1]: 54 µg/mL (≈ 23 µM)
- IC50 at 90 min [2]: 51 µg/mL (≈ 21.7 µM)

SMILES: CC[C@H](C)[C@H](NC(=O)[C@H](CCCCN)NC(=O)[C@H](CCCCN)NC(=O)CNC(=O)[C@H](CCCCN)NC(=O)[C@]1(C)CCCC=CCCC[C@](C)(NC(=O)CN)C(=O)N[C@@H](Cc2ccccc2)C(=O)N[C@@H](CO)C(=O)N[C@@H](CCCCN)C(=O)N1)C(=O)N[C@@H](CCCCN)C(=O)N[C@@H](CC(N)=O)C(=O)N[C@@H](CC(C)C)C(=O)N[C@@]1(C)CCCC=CCCC[C@@](C)(C(=O)N[C@@H](CCCCN)C(=O)NCC(N)=O)NC(=O)[C@H](CCCCN)NC(=O)[C@H](CO)NC(=O)[C@H]([C@@H](C)CC)NC1=O [compound 3] (H-G[S5]FSK[S5]KGKKIKNL[S5]ISK[S5]KG-NH2; staple 2-6, 15-19)
- IC50 at 48 hours [1]: 57 µg/mL (≈ 24.1 µM)
- IC50 at 90 min [2]: 119 µg/mL (≈ 50.4 µM)

SMILES: CC[C@H](C)[C@H](NC(=O)[C@H](CCCCN)NC(=O)[C@H](CCCCN)NC(=O)CNC(=O)[C@H](CCCCN)NC(=O)[C@]1(C)CCCC=CCCC[C@](C)(NC(=O)CN)C(=O)N[C@@H](Cc2ccccc2)C(=O)N[C@@H](CCCCN)C(=O)N[C@@H](CCCCN)C(=O)N1)C(=O)N[C@@H](CCCCN)C(=O)N[C@@H](CC(N)=O)C(=O)N[C@@H](CC(C)C)C(=O)N[C@@]1(C)CCCC=CCCC[C@@](C)(C(=O)N[C@@H](CCCCN)C(=O)NCC(N)=O)NC(=O)CNC(=O)[C@H](CO)NC(=O)[C@H]([C@@H](C)CC)NC1=O [compound 26] (H-G[S5]FKK[S5]KGKKIKNL[S5]ISG[S5]KG-NH2; staple 2-6, 15-19)
- IC50 at 48 hours [1]: 27 µg/mL (≈ 11.6 µM)
- IC50 at 90 min [2]: 32 µg/mL (≈ 13.7 µM)

SMILES: CC[C@H](C)[C@H](NC(=O)[C@H](CCCCN)NC(=O)[C@H](CCCCN)NC(=O)CNC(=O)[C@H](CCCCN)NC(=O)[C@]1(C)CCCC=CCCC[C@](C)(NC(=O)CN)C(=O)N[C@@H](Cc2ccccc2)C(=O)N[C@@H](CO)C(=O)N[C@@H](CCCCN)C(=O)N1)C(=O)N[C@@H](CCCCN)C(=O)N[C@@H](CC(N)=O)C(=O)N[C@@H](CC(C)C)C(=O)N[C@@]1(C)CCCC=CCCC[C@@](C)(C(=O)N[C@@H](CCCCN)C(=O)NCC(N)=O)NC(=O)CNC(=O)[C@H](CO)NC(=O)[C@H](CCCCN)NC1=O [compound 31] (H-G[S5]FSK[S5]KGKKIKNL[S5]KSG[S5]KG-NH2; staple 2-6, 15-19)
- IC50 at 48 hours [1]: 86 µg/mL (≈ 37.3 µM)
- IC50 at 90 min [2]: 116 µg/mL (≈ 50.3 µM)

SMILES: CC[C@H](C)[C@H](NC(=O)[C@H](CCCCN)NC(=O)[C@H](CCCCN)NC(=O)CNC(=O)[C@H](CCCCN)NC(=O)[C@]1(C)CCCC=CCCC[C@](C)(NC(=O)CN)C(=O)N[C@@H](Cc2ccccc2)C(=O)N[C@@H](CO)C(=O)N[C@@H](CCCCN)C(=O)N1)C(=O)N[C@@H](CCCCN)C(=O)N[C@@H](CC(N)=O)C(=O)N[C@@H](CC(C)C)C(=O)N[C@@]1(C)CCCC=CCCC[C@@](C)(C(=O)N[C@@H](CCCCN)C(=O)NCC(N)=O)NC(=O)CNC(=O)[C@H](CO)NC(=O)[C@H]([C@@H](C)CC)NC1=O [compound 1] (H-G[S5]FSK[S5]KGKKIKNL[S5]ISG[S5]KG-NH2; staple 2-6, 15-19)
- IC50 at 48 hours [1]: 47 µg/mL (≈ 20.5 µM)
- IC50 at 90 min [2]: 48 µg/mL (≈ 21 µM)

SMILES: CC[C@H](C)[C@H](NC(=O)[C@H](CCCCN)NC(=O)[C@H](CCCCN)NC(=O)CNC(=O)[C@H](CCCCN)NC(=O)[C@]1(C)CCCC=CCCC[C@](C)(NC(=O)CN)C(=O)N[C@@H](CCCCN)C(=O)N[C@@H](CO)C(=O)N[C@@H](CCCCN)C(=O)N1)C(=O)N[C@@H](CCCCN)C(=O)N[C@@H](CC(N)=O)C(=O)N[C@@H](CC(C)C)C(=O)N[C@@]1(C)CCCC=CCCC[C@@](C)(C(=O)N[C@@H](CCCCN)C(=O)N[C@@H](CC(N)=O)C(N)=O)NC(=O)[C@H](C(C)C)NC(=O)[C@H](CO)NC(=O)[C@H]([C@@H](C)CC)NC1=O [compound 21] (H-G[S5]KSK[S5]KGKKIKNL[S5]ISV[S5]KN-NH2; staple 2-6, 15-19)
- IC50 at 48 hours [1]: 32 µg/mL (≈ 13.5 µM)
- IC50 at 90 min [2]: 54 µg/mL (≈ 22.8 µM)

SMILES: CC[C@H](C)[C@H](NC(=O)[C@H](CCCCN)NC(=O)[C@H](CCCCN)NC(=O)[C@@H](NC(=O)[C@H](CCCCN)NC(=O)[C@]1(C)CCCC=CCCC[C@](C)(NC(=O)CN)C(=O)N[C@@H](CCCCN)C(=O)N[C@@H](CO)C(=O)N[C@@H](CCCCN)C(=O)N1)C(C)C)C(=O)N[C@@H](CCCCN)C(=O)N[C@@H](CC(N)=O)C(=O)N[C@@H](CC(C)C)C(=O)N[C@@]1(C)CCCC=CCCC[C@@](C)(C(=O)N[C@@H](CCCCN)C(=O)NCC(N)=O)NC(=O)CNC(=O)[C@H](CO)NC(=O)[C@H]([C@@H](C)CC)NC1=O [compound 7] (H-G[S5]KSK[S5]KVKKIKNL[S5]ISG[S5]KG-NH2; staple 2-6, 15-19)
- IC50 at 48 hours [1]: 72 µg/mL (≈ 31.1 µM)
- IC50 at 90 min [2]: 191 µg/mL (≈ 82.6 µM)

SMILES: CC[C@H](C)[C@H](NC(=O)[C@H](CCCCN)NC(=O)[C@H](CCCCN)NC(=O)CNC(=O)[C@H](CCCCN)NC(=O)[C@]1(C)CCCC=CCCC[C@](C)(NC(=O)CN)C(=O)N[C@@H](Cc2ccccc2)C(=O)N[C@@H](CO)C(=O)N[C@@H](CCCCN)C(=O)N1)C(=O)N[C@@H](CCCCN)C(=O)N[C@@]1(C)CCCC=CCCC[C@@](C)(C(=O)NCC(=O)N[C@@H](CC(C)C)C(=O)N[C@@H](CCCCN)C(=O)NCC(N)=O)NC(=O)[C@H]([C@@H](C)CC)NC(=O)[C@H](CC(C)C)NC(=O)[C@H](CC(C)C)NC1=O [compound 34] (H-G[S5]FSK[S5]KGKKIK[S5]LLI[S5]GLKG-NH2; staple 2-6, 13-17)
- IC50 at 48 hours [1]: 22 µg/mL (≈ 9.5 µM)
- IC50 at 90 min [2]: 35 µg/mL (≈ 15.1 µM)

SMILES: CC[C@H](C)[C@H](NC(=O)[C@H](CCCN)NC(=O)[C@H](CCCN)NC(=O)CNC(=O)[C@H](CCCN)NC(=O)[C@]1(C)CCCC=CCCC[C@](C)(NC(=O)CN)C(=O)N[C@@H](Cc2ccccc2)C(=O)N[C@@H](CO)C(=O)N[C@@H](CCCN)C(=O)N1)C(=O)N[C@@H](CCCN)C(=O)N[C@@H](CC(N)=O)C(=O)N[C@@H](CC(C)C)C(=O)N[C@@]1(C)CCCC=CCCC[C@@](C)(C(=O)N[C@@H](CCCN)C(=O)NCC(N)=O)NC(=O)CNC(=O)[C@H](CO)NC(=O)[C@H]([C@@H](C)CC)NC1=O [compound 15] (H-G[S5]FS[Orn][S5][Orn]G[Orn][Orn]I[Orn]NL[S5]ISG[S5][Orn]G-NH2; staple 2-6, 15-19)
- IC50 at 48 hours [1]: ~100 µg/mL (≈ 45.3 µM)
- IC50 at 90 min [2]: 25 µg/mL (≈ 11.3 µM)

SMILES: CC[C@H](C)[C@H](NC(=O)[C@]1(C)CCCC=CCCC[C@](C)(NC(=O)[C@H](CCCCN)NC(=O)[C@H](CCCCN)NC(=O)CNC(=O)[C@H](CCCCN)NC(=O)[C@]2(C)CCCC=CCCC[C@](C)(NC(=O)CN)C(=O)N[C@@H](Cc3ccccc3)C(=O)N[C@@H](CO)C(=O)N[C@@H](CCCCN)C(=O)N2)C(=O)N[C@@H](CCCCN)C(=O)N[C@@H](CC(N)=O)C(=O)N[C@@H](CC(C)C)C(=O)N1)C(=O)N[C@@H](CO)C(=O)NCC(=O)N[C@@H](CC(C)C)C(=O)N[C@@H](CCCCN)C(=O)NCC(N)=O [compound 35] (H-G[S5]FSK[S5]KGKK[S5]KNL[S5]ISGLKG-NH2; staple 2-6, 11-15)
- IC50 at 48 hours [1]: 23 µg/mL (≈ 10 µM)
- IC50 at 90 min [2]: 27 µg/mL (≈ 11.8 µM)
